One test concerns the target T1, Drosophila OR13a (Drosophila melanogaster, UniProt Q9VXL0).
T1 construct: expressed in transfected cells
T1 sequence (Q9VXL0 1-418): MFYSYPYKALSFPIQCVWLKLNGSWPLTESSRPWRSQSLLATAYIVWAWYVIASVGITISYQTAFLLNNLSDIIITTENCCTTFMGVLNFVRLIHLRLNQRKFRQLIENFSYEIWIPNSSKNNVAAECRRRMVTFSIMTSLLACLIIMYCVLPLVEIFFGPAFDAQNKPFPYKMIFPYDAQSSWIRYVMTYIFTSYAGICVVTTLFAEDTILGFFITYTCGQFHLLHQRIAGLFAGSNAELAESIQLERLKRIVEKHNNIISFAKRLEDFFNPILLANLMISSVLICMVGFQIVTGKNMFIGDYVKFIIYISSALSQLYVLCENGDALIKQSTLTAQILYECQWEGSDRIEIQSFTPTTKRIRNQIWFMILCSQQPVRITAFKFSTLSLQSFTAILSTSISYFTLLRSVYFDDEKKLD
T1 sequence (Q9VNB5 1-486 partner): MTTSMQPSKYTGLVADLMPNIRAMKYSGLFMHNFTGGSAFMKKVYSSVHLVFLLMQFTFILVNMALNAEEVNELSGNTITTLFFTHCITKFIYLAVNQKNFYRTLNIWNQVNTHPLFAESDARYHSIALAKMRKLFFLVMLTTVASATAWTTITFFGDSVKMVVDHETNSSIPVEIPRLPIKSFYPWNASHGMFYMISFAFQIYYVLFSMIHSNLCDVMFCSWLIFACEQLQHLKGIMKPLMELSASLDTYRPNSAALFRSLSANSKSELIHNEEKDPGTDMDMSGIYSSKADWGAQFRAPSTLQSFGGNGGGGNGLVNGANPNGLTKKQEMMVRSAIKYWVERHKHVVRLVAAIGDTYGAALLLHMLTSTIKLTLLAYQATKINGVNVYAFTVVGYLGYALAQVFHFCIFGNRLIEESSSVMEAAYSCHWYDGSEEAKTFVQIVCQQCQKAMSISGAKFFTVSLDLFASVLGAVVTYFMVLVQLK
As to the kind of experiment: cell-based. Conditions: HEK293; relative to 50 uM VUAA1 response; below 0.05 set to 0; read-out: % activation. The arrangement: GCaMP6 calcium fluorescence in stable HEK293 OR+ORCO lines; peak dF normalised to 50 uM VUAA1 (=1). On the procedure:
(§1) Twelve thousand to 18,000 cells were plated into each well of a black wall, transparent bottom 384-well microplate (Greiner) 48 h or 72 h before the measurements and were simultaneously treated with 1 μg/mL doxycycline. Typically, three columns were filled with one OR expressing cell line, each row was treated with the same compound (three technical replicates for each OR), and each responsive VOC-OR combination was measured at least three times on different days. The plate has 24 columns, thus we could record responses in up to eight different cell lines in each plate. On the day of the experiment, the growth medium was replaced with 20 µL assay buffer/well (140 mM NaCl, 5 mM KCl, 2 mM CaCl2, 1 mM MgCl2, 5 mM HEPES-Na, 20 mM glucose, pH 7.3, 340 mOsm). […] Baseline fluorescence (F0) was recorded for 5 s, after which 7 µL VOC buffer (140 mM NaCl, 5 mM KCl, 2 mM CaCl2, 1 mM MgCl2, 5 mM HEPES-Na, 31 mM glucose, 0.1% DMSO, pH 7.3, 340 mOsm) was injected into each well in one row and the fluorescence response was recorded for an additional 30 s, at a rate of one read/sec. VOC solutions (VOC buffer with 4× concentration of the final measured VOC concentration, 9 µL/well was injected) were measured on the same wells in a second round with the same protocol. Each individual concentration of a specific VOC sample was recorded in three wells for the same cell line on the same microplate. The raw data were exported in xls file format, F0 and FMAX values, and the fluorescence intensity changes (∆F) were calculated in Excel (Microsoft) (Supplementary file Data summary.xlsx) using the following equation: ΔF=FMAX-F0/F0 (see also Fig. 1C). On each plate, we recorded the response of each cell line to 50 µM VUAA1. The average of these ∆F values of each cell line were used to calculate the VUAA1-normalized values for the rest of the plate, by dividing VOC response ∆F values by the average VUAA1 response ∆F value of the corresponding OR cell line. Each VOC-OR combination was measured three times as tec The recorded FMAX, F0, ∆F, VUAA1-normalized ∆F values, as well as the OR name, the name of the tested sample, and the final concentration for each well were copied into supplementary file Data summary.xlsx, that was used to summarize all the plates recorded. Here, the averages of the measurements were calculated for each receptor-VOC-concentration combination. […] Each VOC was measured at 1, 10, and 100 µM final concentration on each receptor. VUAA1-normalized response was calculated as described in methods. Values are averages of at least three biological replicates for responsive combinations and two for the non-responsive combinations. The chemical structures of the strong and medium ligands are shown for each cell line. Heat map: white-green colors correspond to the lowest-highest values measured for each cell line.

The next test deals with T2, Drosophila OR85b (Drosophila melanogaster, UniProt Q9VHQ7).
T2 construct: expressed in transfected cells
T2 sequence (Q9VHQ7 1-390): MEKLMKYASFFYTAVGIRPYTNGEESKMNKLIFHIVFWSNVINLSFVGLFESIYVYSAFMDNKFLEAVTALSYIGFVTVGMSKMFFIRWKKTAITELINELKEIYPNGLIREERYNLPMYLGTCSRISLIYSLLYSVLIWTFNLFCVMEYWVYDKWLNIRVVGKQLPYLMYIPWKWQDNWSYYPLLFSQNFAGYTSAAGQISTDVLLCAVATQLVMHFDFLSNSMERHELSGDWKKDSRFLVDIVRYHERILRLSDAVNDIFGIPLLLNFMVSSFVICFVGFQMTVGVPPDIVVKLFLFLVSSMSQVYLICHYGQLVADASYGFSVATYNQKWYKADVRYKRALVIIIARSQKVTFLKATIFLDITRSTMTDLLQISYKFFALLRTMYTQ
T2 sequence (Q9VNB5 1-486 partner): T1 sequence (Q9VNB5 1-486 partner)
In words: cell-based. On the set-up: GCaMP6 calcium fluorescence in stable HEK293 OR+ORCO lines; peak dF normalised to 50 uM VUAA1 (=1). The following applies: HEK293; relative to 50 uM VUAA1 response; below 0.05 set to 0; read-out: % activation. On the procedure:
as §1

Structures are written as SMILES.

As for `CC/C=C/CCO` [e3-hexenol], on Drosophila OR13a, the activity at 1 µM worked out at 0%, the activity at 10 µM turned out to be 0% and the activity at 100 µM worked out at 7.11%. In addition, on Drosophila OR85b, the activity at 1 µM was found to be 0%, the activity at 10 µM was found to be 0% and the activity at 100 µM came out at 0%.

For the origin of these results see paper PMC10709440, “High-throughput ligand profile characterization in novel cell lines expressing seven heterologous insect olfactory receptors for the detection of volatile plant biomarkers” (Scientific Reports, 2023).
